The source of these data is US10899747B2, “Biaryl piperidine amide compounds and methods of use thereof” (Athenex, Inc., priority 2017, dated 2021).

Common to all, as to type: cell-based
Experiment [1] has as its system IL-2. The experiment can be described thus: PHA-IL2 (cell activation and cytokine analysis). The note with it: 50% inhibition concentration class. An outline of the steps: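 Cells were seeded in 96-well plates at 1.0-2.0×10^6 cells/ml in 150 ul of RPMI containing 0.5% fetal calf serum. Test compounds, at up to ≤20 uM, were preincubated with the cells for 30 minutes, then phytohemagglutinin (PHA) was added and cultures were stimulated for 24-48 hours at 37 degrees C./5% CO2. Supernatant IL-2 was then quantified by standard ELISA.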

Experiment [2] has as its system NFAT. The experiment can be described thus: TCR-NFAT (luciferase-based reporter assay). The note with it: Homo sapiens; 50% inhibition concentration class. The protocol:
Jurkat T cells are transiently transfected with a DNA plasmid encoding Firefly luciferase under the transcriptional control of an appropriate regulatory element that may include multimerized NFAT, AP-1, NFκB, or CREB binding sites. Cells are co-transfected with a DNA plasmid encoding Renilla luciferase under the transcriptional control of a constitutive regulatory element (e.g., HSV-TK promoter). 24 hours following transfection, cells are collected and re-seeded in 96-well plates at a final density of 1.0×10^6 cells/ml in 150 ul assay medium. Test compounds may be included at a final concentration of ≤20 uM and generally pre-incubated with cells for 30 minutes prior to stimulation. An appropriate stimulus is added, including but not limited to, a) phorbol myristate acetate (PMA) and ionomycin, or b) stimulatory antibodies to the TCR complex (e.g., anti-CD3ε) and CD28. Cell cultures are stimulated for 4-6 hours in a humidified incubator (37 degrees C./5% CO2). Cells are than lysed and the level of Firefly luciferase and Renilla Luciferase activity is determined using a standard assay (e.g., Promega's Dual Luciferase Reporter Assay System) and plate-reading luminometer. The ratio obtained by dividing activation induced Firefly luciferase activity by the constitutive Renilla luciferase activity is calculated and used as a quantitative measurement of cell activation.
(§1) Jurkat T cells were transiently transfected with a DNA plasmid encoding Firefly luciferase under the transcriptional control of an appropriate regulatory element that may include multimerized NFAT, AP-1, NFκB, or CREB binding sites. Cells were co-transfected with a DNA plasmid encoding Renilla luciferase under the transcriptional control of a constitutive regulatory element (e.g., HSV-TK promoter). 24 hours following transfection, cells were collected and re-seeded in 96-well plates at a final density of 1.0×10^6 cells/ml in 150 ul assay medium. Compound 413 was included at a final concentration of ≤20 uM and pre-incubated with cells for 30 minutes prior to stimulation. Mitogens PMA and ionomycin were added. Cell cultures were stimulated for 4-6 hours in a humidified incubator (37° C./5% CO2). Cells were then lysed and the level of Firefly luciferase and Renilla Luciferase activity was determined using a standard assay (e.g., Promega's Dual Luciferase Reporter Assay System) and plate-reading luminometer. The ratio obtained by dividing activation induced Firefly luciferase activity by the constitutive Renilla luciferase activity was calculated and used as a quantitative measurement of cell activation.

Experiment [3] relates to IL-2. Kind of experiment: IL-2 secretion by ELISA in Jurkat T cells stimulated with PMA and ionomycin. The note with it: Homo sapiens, supernatants harvested at 20 hours, read-out: concentration required to achieve 50% inhibition (IC50) of IL-2. How it is done:
Jurkat (a transformed human T cell leukemia) cells were plated in 96-well plates at a final density of 1.0-2.0×10^6 cells/ml in 150 ul of assay medium (RPMI+0.5% fetal calf serum). Compounds 403 and 413 were included at a final concentration of ≤20 uM and pre-incubated with cells for 30 minutes prior to stimulation. Mitogens PMA and ionomycin were added to the T cell receptor (TCR) complex (e.g., anti-CD3c) and CD28. Cell cultures were stimulated for 24-48 hours in a humidified incubator (37 degrees C./5% CO2). A fraction of the culture supernatant was then harvested from each well and assayed for the presence of appropriate cytokine using standard ELISA. Cytokines analyzed was IL-2. If required, the number of cytokine producing cells can be determined using intracellular staining and flow cytometry.
More specifically, Jurkat T cells were stimulated with the mitogens PMA and ionomycin in the presence of varying concentrations of compound 403 or compound 413. Supernatants were harvested at 20 hours and analyzed for IL-2 content by ELISA. IL-2 values obtained from vehicle (DMSO) treated control wells (˜2800 pg/ml) were assigned a value of 100% and used to calculate the % inhibition achieved for each compound.
(In an ELISA, binding on a coated surface is turned into a signal by an enzyme label.)

Experiment [4] has as its system NFAT. The experiment can be described thus: NFAT-dependent Firefly luciferase reporter assay in Jurkat T cells stimulated with PMA and ionomycin. The note with it: Homo sapiens, PMA and ionomycin for 6 hours, read-out: concentration required to achieve 50% inhibition (IC50) of NFAT-dependent luciferase activity. The protocol: as §1, with “Mitogens PMA and ionomycin were added. Cell cultures were stimulated for 4-6 hours in a humidified incubator (37° C./5% CO2).” left out
More specifically, Jurkat T cells were co-transfected with a NFAT-dependent Firefly Luciferase reporter plasmid and a control Renilla Luciferase reporter plasmid. […] Lysates were prepared and analyzed for luciferase activity using the Dual Luciferase Reporter Assay System (Promega). […]
A general note: A reporter such as luciferase makes a cellular process visible.

Molecules are shown by their SMILES.

As to `O=C(COc1ccccc1-c1ccccc1)N1CCC(CCc2ccccc2)CC1` [Compound 118], the IC50 in the experiment with IL-2 [1] is 1000 to 10000 nM; in the experiment with NFAT [2], 10 to 50 µM.

On to `O=C(COc1ccccc1-c1ccccc1)N1CCC(CCc2ccc3c(c2)OCO3)CC1` [Compound 105], for which the IC50 in the experiment on IL-2 [1] is less than 1000 nM; in the experiment with NFAT [2], 1 to 10 µM.

As to `O=C(/C=C/c1cc2c(cc1-c1ccccc1)OCO2)N1CCC(CCc2ccc(O)cc2)CC1` [Compound 111], the IC50 in the experiment with IL-2 [1] is 1000 to 10000 nM; with NFAT [2], 1 to 10 µM.

Regarding `CC(C)Oc1cccc(CCC2CCN(C(=O)COc3ccccc3-c3ccc(C#N)cc3)CC2)c1` [Compound 403], the IC50 in the experiment on IL-2 [1] is less than 1000 nM; in the experiment on IL-2 [3], 68 nM.

For the molecule `COc1ccc(CCC2CCN(C(=O)COc3cccnc3-c3ccccc3)CC2)cc1OC` [Compound 141], the IC50 in the experiment on IL-2 [1] was 1000 to 10000 nM; in the experiment with NFAT [2], 10 to 50 µM.

Take `O=C(COc1ccccc1-c1ccccc1)N1CCC(CCc2ccc3c(c2)OCCO3)CC1` [Compound 114]: the IC50 in the experiment with IL-2 [1] is less than 1000 nM; in the experiment with NFAT [2] it was 1 to 10 µM.

Turning to `O=C(COc1ccccc1-c1ccccc1)N1CCC(CCc2ccc(O)cc2)CC1` [Compound 100], the IC50 in the experiment with IL-2 [1] is less than 1000 nM; in the experiment with NFAT [2], 1 to 10 µM.

For the molecule `O=C(COc1ccccc1-c1ccccc1)N1CCC(CCc2cc(F)c(O)c(F)c2)CC1` [Compound 124], the IC50 with IL-2 [1] is less than 1000 nM; in the experiment on NFAT [2], 10 to 50 µM.

Take `COC(=O)c1ccc(CCC2CCN(C(=O)COc3ccccc3-c3ccccc3)CC2)cc1` [Compound 101]: the results for the IC50 with IL-2 [1] and in the experiment on NFAT [2] were less than 1000 nM and less than 1 µM, respectively.

As for `CC(C)Oc1cccc(CCC2CCN(C(=O)COc3ccc(C#N)cc3-c3ccc(C#N)cc3)CC2)c1` [Compound 413], the values for the IC50 in the experiment with IL-2 [1], with NFAT [4] and in the experiment with IL-2 [3] were less than 1000 nM, 9 nM and 18 nM, respectively.

For the molecule `O=C(COc1ccccc1-c1ccccc1)N1CCC(CCc2ccc(F)c(C(F)(F)F)c2)CC1` [Compound 121], the IC50 in the experiment on NFAT [2] was 10 to 50 µM.

Consider `O=C(COc1cc(F)c(F)cc1-c1ccccc1)N1CCC(CCc2ccc(F)cc2)CC1` [Compound 137], for which the IC50 with NFAT [2] is 10 to 50 µM.

With `COc1ccc(CCC2CCN(C(=O)COc3c(F)cccc3-c3ccccc3)CC2)cc1` [Compound 134], in the experiment with NFAT [2], the IC50 lay within 10 to 50 µM.

The molecule `COc1ccc(CCC2CCN(C(=O)COc3ccccc3-c3ccccc3)CC2)cc1` [Compound 108] displayed an IC50 in the experiment on NFAT [2] of 1 to 10 µM.

As for `CC(C)NC(=O)c1ccc(CCC2CCN(C(=O)COc3ccccc3-c3ccccc3)CC2)cc1` [Compound 148], the IC50 was 1000 to 10000 nM in the experiment with IL-2 [1] and 1 to 10 µM with NFAT [2].

Molecule `COc1cccc(CCC2CCN(C(=O)COc3ccccc3-c3ccccc3)CC2)c1` [Compound 128] came in with an IC50 in the experiment with NFAT [2] of 10 to 50 µM.

Turning to `O=C(COc1ccccc1-c1ccccc1O)N1CCC(CCc2ccc3c(c2)OCO3)CC1` [Compound 169], the IC50 in the experiment on IL-2 [1] is less than 1000 nM; in the experiment on NFAT [2], less than 1 µM.

Regarding `COc1ccc(CO)cc1CCC1CCN(C(=O)COc2ccccc2-c2ccccc2)CC1` [Compound 125], in the experiment with NFAT [2], the IC50 was in the range of 10 to 50 µM.

For `CCOc1ccc(CCC2CCN(C(=O)COc3ccccc3-c3ccccc3)CC2)cc1` [Compound 129], the IC50 in the experiment with NFAT [2] was 10 to 50 µM.

In the experiment with NFAT [2], `COc1ccc(CCC2CCN(C(=O)C(C)Oc3ccccc3-c3ccccc3)CC2)cc1OC` (stereo not shown) [Compound 144] gave an IC50 of 1 to 10 µM.

`COCc1ccc(CCC2CCN(C(=O)COc3ccccc3-c3ccccc3)CC2)cc1` [Compound 146]: the IC50 in the experiment on NFAT [2] is 1 to 10 µM.
